This experiment has as its system Caenorhabditis elegans. The experiment in a line: Longevity-promoting activity in wild type Caenorhabditis elegans N2 assessed as increase in lifespan at 50 ppm by microscopic analysis. The format is functional, organism-based.

Calls of active or inactive are those of the source. No cut-off for these calls is given here.

On to `O=C(O)c1ccccc1`, for which the result was inactive. As to `O=C(O)CC(O)(CC(=O)O)C(=O)O`, the result was inactive. With `CC(=O)O`, the result was Active.

For the origin of these results see ChEMBL document CHEMBL1152679, “The lifespan-promoting effect of acetic acid and Reishi polysaccharide” (2009).
